Among the data in the NIST ThermoML archive (doi:10.1021/je0497000) are mass density, speed of sound and Normal boiling temperature values, retold here.

± gives the expanded uncertainty stated by the source.

For data set [1] the following is noted: Liquid; for mass density / speed of sound: 298.15 K, 101.3 kPa.
The nature of data set [2]: xn = mol fraction of the nth substance listed. The note with it: 298.15 K, 101.3 kPa, Liquid.

`CC(C)=O` [acetone]: in data set [1], the mass density is listed as 784.37 ± 0.31 kg/m3, the speed of sound is 1162 ± 2 m/s and the Normal boiling temperature was determined as 56.12 ± 0.13 °C.

Consider `CC(C)=O` [acetone] + COC(=O)OC, for which, in data set [2] (x1 = 1), the mass density is 784.37 ± 0.31 kg/m3 and the speed of sound stood at 1162 ± 2 m/s.

`CCC(C)=O` [butanone]: in data set [1], the mass density was 799.7 ± 0.35 kg/m3, the speed of sound was found to be 1192 ± 2 m/s and the Normal boiling temperature worked out at 79.63 ± 0.13 °C.

Consider `CCC(C)=O` [butanone] + COC(=O)OC, for which the mass density was found to be 1049.31 ± 0.54 kg/m3 in data set [2] (x1 = 0.0499); 1035.29 ± 0.51 kg/m3 in data set [2] (x1 = 0.0999); 1007.79 ± 0.47 kg/m3 in data set [2] (x1 = 0.1994); 980.5 ± 0.44 kg/m3 in data set [2] (x1 = 0.2996); 953.88 ± 0.42 kg/m3 in data set [2] (x1 = 0.3986); 926.3 ± 0.41 kg/m3 in data set [2] (x1 = 0.5027). Also, the mass density is listed as 900.51 ± 0.38 kg/m3 in data set [2] (x1 = 0.6014); 872.49 ± 0.36 kg/m3 in data set [2] (x1 = 0.7102); 848.69 ± 0.35 kg/m3 in data set [2] (x1 = 0.8038); 823.48 ± 0.35 kg/m3 in data set [2] (x1 = 0.9043); 811.75 ± 0.35 kg/m3 in data set [2] (x1 = 0.9514); 799.7 ± 0.35 kg/m3 in data set [2] (x1 = 1). Further, the speed of sound in data set [2] (x1 = 0.0499) is 1199 ± 2 m/s; in data set [2] (x1 = 0.0999), 1198 ± 2 m/s; in data set [2] (x1 = 0.1994), 1196 ± 2 m/s; in data set [2] (x1 = 0.2996), 1194 ± 2 m/s; in data set [2] (x1 = 0.3986), 1192 ± 2 m/s; in data set [2] (x1 = 0.5027) it was 1191 ± 2 m/s. The speed of sound in data set [2] (x1 = 0.6014) is on record as 1190 ± 2 m/s; in data set [2] (x1 = 0.7102) it was 1190 ± 2 m/s; in data set [2] (x1 = 0.8038) it was 1191 ± 2 m/s; in data set [2] (x1 = 0.9043) it was 1191 ± 2 m/s; in data set [2] (x1 = 0.9514) it was 1191 ± 2 m/s; in data set [2] (x1 = 1), 1192 ± 2 m/s.

Turning to `COC(=O)OC` [dimethyl carbonate], in data set [1], the mass density came out at 1063.33 ± 0.56 kg/m3, the speed of sound is on record as 1198 ± 2 m/s and the Normal boiling temperature stood at 90.31 ± 0.13 °C.

For `COC(=O)OC` [dimethyl carbonate] + CC(C)=O, the mass density in data set [2] (x2 = 0) is recorded as 1063.33 ± 0.56 kg/m3; in data set [2] (x2 = 0.0447), 1052.64 ± 0.53 kg/m3; in data set [2] (x2 = 0.0906) it was 1041.54 ± 0.51 kg/m3; in data set [2] (x2 = 0.1886), 1017.22 ± 0.45 kg/m3; in data set [2] (x2 = 0.2886), 991.68 ± 0.4 kg/m3; in data set [2] (x2 = 0.3941), 963.86 ± 0.37 kg/m3. Besides, the mass density amounted to 936.83 ± 0.35 kg/m3 in data set [2] (x2 = 0.4933); 907.17 ± 0.32 kg/m3 in data set [2] (x2 = 0.5988); 877.06 ± 0.3 kg/m3 in data set [2] (x2 = 0.7021); 848.41 ± 0.29 kg/m3 in data set [2] (x2 = 0.7974); 814.88 ± 0.29 kg/m3 in data set [2] (x2 = 0.9053); 799.51 ± 0.3 kg/m3 in data set [2] (x2 = 0.9534). Besides, the speed of sound is on record as 1198 ± 2 m/s in data set [2] (x2 = 0); 1196 ± 2 m/s in data set [2] (x2 = 0.0447); 1195 ± 2 m/s in data set [2] (x2 = 0.0906); 1192 ± 2 m/s in data set [2] (x2 = 0.1886); 1188 ± 2 m/s in data set [2] (x2 = 0.2886); 1184 ± 2 m/s in data set [2] (x2 = 0.3941). The speed of sound in data set [2] (x2 = 0.4933) was 1180 ± 2 m/s; in data set [2] (x2 = 0.5988), 1176 ± 2 m/s; in data set [2] (x2 = 0.7021), 1172 ± 2 m/s; in data set [2] (x2 = 0.7974), 1168 ± 2 m/s; in data set [2] (x2 = 0.9053), 1165 ± 2 m/s; in data set [2] (x2 = 0.9534) it was 1163 ± 2 m/s.

Take `COC(=O)OC` [dimethyl carbonate] + CCC(C)=O: in data set [2] (x2 = 0), the mass density was 1063.33 ± 0.56 kg/m3 and the speed of sound came to 1198 ± 2 m/s.

For the compound `COC(=O)OC` [dimethyl carbonate] + CCCC(C)=O, in data set [2] (x2 = 0), the mass density stood at 1063.33 ± 0.56 kg/m3 and the speed of sound is recorded as 1198 ± 2 m/s.

As to `CCCC(C)=O` [pentan-2-one], in data set [1], the mass density is reported as 801.39 ± 0.35 kg/m3, the speed of sound came to 1212 ± 2 m/s and the Normal boiling temperature turned out to be 102.21 ± 0.13 °C.

`CCCC(C)=O` [pentan-2-one] + COC(=O)OC: the mass density worked out at 1046.71 ± 0.53 kg/m3 in data set [2] (x1 = 0.0498); 1030.33 ± 0.51 kg/m3 in data set [2] (x1 = 0.1004); 999.49 ± 0.47 kg/m3 in data set [2] (x1 = 0.1996); 969.77 ± 0.44 kg/m3 in data set [2] (x1 = 0.3009); 942.67 ± 0.42 kg/m3 in data set [2] (x1 = 0.398); 914.75 ± 0.41 kg/m3 in data set [2] (x1 = 0.5036). In addition, the mass density in data set [2] (x1 = 0.6017) is listed as 890.1 ± 0.38 kg/m3; in data set [2] (x1 = 0.7046), 865.52 ± 0.36 kg/m3; in data set [2] (x1 = 0.8012), 843.59 ± 0.35 kg/m3; in data set [2] (x1 = 0.901) it was 821.94 ± 0.35 kg/m3; in data set [2] (x1 = 0.9504) it was 811.55 ± 0.35 kg/m3; in data set [2] (x1 = 1), 801.39 ± 0.35 kg/m3. In addition, the speed of sound in data set [2] (x1 = 0.0498) is on record as 1199 ± 2 m/s; in data set [2] (x1 = 0.1004) it was 1198 ± 2 m/s; in data set [2] (x1 = 0.1996), 1197 ± 2 m/s; in data set [2] (x1 = 0.3009), 1198 ± 2 m/s; in data set [2] (x1 = 0.398), 1198 ± 2 m/s; in data set [2] (x1 = 0.5036), 1200 ± 2 m/s. Besides, the speed of sound in data set [2] (x1 = 0.6017) came out at 1201 ± 2 m/s; in data set [2] (x1 = 0.7046) it was 1203 ± 2 m/s; in data set [2] (x1 = 0.8012) it was 1206 ± 2 m/s; in data set [2] (x1 = 0.901), 1209 ± 2 m/s; in data set [2] (x1 = 0.9504) it was 1211 ± 2 m/s; in data set [2] (x1 = 1), 1212 ± 2 m/s.
